Measured values reported in article PMC9863987, “Identification of Aryl Polyamines Derivatives as Anti-Trypanosoma cruzi Agents Targeting Iron Superoxide Dismutase” (Pharmaceutics, 2022).
Where a name gives a salt, the structure may show the parent alone.

What was measured:
Vero cells = assay: Cytotoxicity test on mammalian Vero cells (resazurin); type: cell-based; details: Chlorocebus sabaeus, 48 h treatment + 24 h resazurin, mean of three ± SD, read-out: Toxicity IC50 Vero Cell
Protocol: Cytotoxicity against mammalian Vero cells (EACC No. 84113001) was tested as previously reported. In brief, 1.25 × 10^4 Vero cells·mL^−1, cultured at 37 °C, were treated by adding the compounds in serial dilutions from 400 to 1 µM in 96-well plates (200 µL·well^−1) for 48 h. BZN and untreated controls were also included in triplicate. Later, 20 μL of resazurin sodium salt (Sigma-Aldrich) was added, and the plates were incubated for another 24 h. Finally, cell viability was determined following the same procedure as described to assess the trypanocidal activity in the epimastigotes.

[1] = test system: T. cruzi Arequipa strain epimastigotes; assay: Screening against extracellular epimastigotes, Arequipa strain (resazurin); type: cell-based, Trypanosoma cruzi; details: for IC50: Trypanosoma cruzi, epimastigotes, 48 h treatment + 24 h resazurin, mean of three ± SD, read-out: Activity IC50 T. cruzi Arequipa Strain E; for Selectivity Index T. cruzi Arequipa Strain E: IC50 Vero cells/IC50 epimastigotes
Protocol: (§1) Three different T. cruzi […] strains—MHOM/Pe/2011/Arequipa, discrete typing unit (DTU) V [26]; IRHOD/CO/2008/SN3, DTU I [27]; TINF/CH/1956/Tulahuen, DTU VI [26]—were grown at 28 °C in Gibco® RPMI 1640 Medium supplemented as previously reported, and used for in vitro screening.
(§2) Trypanocidal activity against epimastigotes was tested as previously reported. In brief, 5 × 10^5 mL^−1 epimastigotes culture medium were treated by adding the compounds in serial dilutions from 100 to 0.2 µM in 96-well plates (200 µL·well^−1) for 48 h. BZN and untreated growth control were also included in triplicate. Later, 20 μL of resazurin sodium salt (Sigma-Aldrich, St. Louis, MO, USA) was added, and the plates were incubated for another 24 h. Finally, the absorbance of the wells was measured at 570/600 nm and related to the control. The trypanocidal activity was expressed as the IC50 (inhibitory concentration 50) value using GraphPad Prism 6 software.

[2] = test system: T. cruzi SN3 strain epimastigotes; assay: Screening against extracellular epimastigotes, SN3 strain (resazurin); type: cell-based, Trypanosoma cruzi; details: for IC50: Trypanosoma cruzi, epimastigotes, 48 h treatment + 24 h resazurin, mean of three ± SD, read-out: Activity IC50 T. cruzi SN3 Strain E; for Selectivity Index T. cruzi SN3 Strain E: IC50 Vero cells/IC50 epimastigotes
Protocol: as §1, §2

[3] = test system: T. cruzi Tulahuen strain epimastigotes; assay: Screening against extracellular epimastigotes, Tulahuen strain (resazurin); type: cell-based, Trypanosoma cruzi; details: for IC50: Trypanosoma cruzi, TULAHUEN, epimastigotes, 48 h treatment + 24 h resazurin, mean of three ± SD, read-out: Activity IC50 T. cruzi Tulahuen Strain E; for Selectivity Index T. cruzi Tulahuen Strain E: IC50 Vero cells/IC50 epimastigotes
Protocol: as §1, §2

[4] = test system: T. cruzi Arequipa strain amastigotes; assay: Screening against intracellular amastigotes in Vero cells, Arequipa strain (Giemsa counting); type: cell-based, Trypanosoma cruzi
Protocol: (§3) TINF/CH/1956/Tulahuen, DTU VI [26]—were grown at 28 °C in Gibco® RPMI 1640 Medium supplemented as previously reported, and used for in vitro screening. Trypanocidal activity against amastigotes was tested as previously reported. In brief, bloodstream trypomastigotes (BTs), obtained by cardiac puncture from infected BALB/c mice, were used to infect 1 × 10^4 Vero cells·well^−1 in 24-well plates with rounded coverslips at a multiplicity of infection (MOI) ratio of 10:1. After 24 h of infection, non-internalized trypomastigotes were washed and the infected cells were treated by adding the compounds in serial dilutions from 50 to 0.5 µM in […] for 72 h. BZN and untreated growth controls were also included in triplicate. Later, the number of amastigotes and infected cells were determined in Giemsa stained preparations by analysing 500 host cells randomly distributed in microscopic fields. The trypanocidal activity was expressed as the IC50 using GraphPad Prism 6 software (version 6.07).

[5] = test system: T. cruzi Arequipa strain trypomastigotes; assay: Screening against bloodstream trypomastigotes, Arequipa strain (resazurin); type: cell-based, Trypanosoma cruzi
[6] = test system: T. cruzi Tulahuen strain trypomastigotes; assay: Screening against bloodstream trypomastigotes, Tulahuen strain (resazurin); type: cell-based, Trypanosoma cruzi
[7] = test system: T. cruzi Tulahuen strain amastigotes; assay: Screening against intracellular amastigotes in Vero cells, Tulahuen strain (Giemsa counting); type: cell-based, Trypanosoma cruzi
Protocol: as §3

[8] = IC50 Vero cells/IC50 amastigotes
[9] = IC50 Vero cells/IC50 trypomastigotes

IC50 [1] | IC50 [2] | IC50 [3] | Compound | CC50 (Vero cells) | other results
28.3 ± 2.4 µM | 27.1 ± 2.1 µM | 26 ± 2.7 µM | c1ccc(CNCCN(CCNCc2ccccn2)Cc2ccc3ccccc3c2)nc1 [Compound 1] | 58.1 ± 6 µM | –
2.9 ± 0.3 µM | 5.7 ± 0.5 µM | 15.8 ± 1.4 µM | c1cncc(CNCCN(CCNCc2cccnc2)Cc2ccc3ccccc3c2)c1 [Compound 2] | 38.5 ± 4.1 µM | Selectivity Index T. cruzi Arequipa Strain A [4, 8]: 6.2; IC50 ([4]; Trypanosoma cruzi, amastigotes in Vero cells, 72 h, mean of three ± SD): 6.2 ± 0.6 µM; Selectivity Index T. cruzi Arequipa Strain E [1]: 13.5; Selectivity Index T. cruzi Arequipa Strain T [5, 9]: 8.0; IC50 ([5]; Trypanosoma cruzi, trypomastigotes, 24 h + 4 h resazurin, mean of three ± SD): 4.8 ± 0.5 µM; Selectivity Index T. cruzi SN3 Strain E [2]: 6.7; Selectivity Index T. cruzi Tulahuen Strain E [3]: 2.4
18.7 ± 1.6 µM | 21.8 ± 1.9 µM | 19.2 ± 1.7 µM | c1ccc2cc(CN(CCNCc3ccncc3)CCNCc3ccncc3)ccc2c1 [Compound 3] | 25.8 ± 2.7 µM | –
25.2 ± 2.7 µM | 11 ± 1 µM | 22.6 ± 3.3 µM | c1ccc2cc(CN(CCNCc3ccnc4ccccc34)CCNCc3ccnc4ccccc34)ccc2c1 [Compound 4, 1,7-Bis(4-quinolylmethyl)-4-(2-naphthylmethyl)-1,4,7-triazaheptane Pentahydrochloride] | 5.3 ± 0.4 µM | –
12 ± 1.1 µM | 10 ± 1.2 µM | 16.1 ± 1.7 µM | O=C(NCCN(CCNC(=O)c1ccccn1)Cc1ccc2ccccc2c1)c1ccccn1 [Compound 6] | 63.2 ± 5.7 µM | –
11.5 ± 1.1 µM | 10.4 ± 1.1 µM | 12.1 ± 1.1 µM | CN(C)c1cccc2c(S(=O)(=O)N(CCNCc3ccccn3)CCNCc3ccccn3)cccc12 [Compound 7] | 41.3 ± 3.7 µM | –
48.1 ± 3.9 µM | 36.4 ± 3.4 µM | 10 ± 1.1 µM | CN(C)c1cccc2c(S(=O)(=O)N(CCNCc3cccnc3)CCNCc3cccnc3)cccc12 [Compound 8] | 136 ± 14.8 µM | Selectivity Index T. cruzi Arequipa Strain E [1]: 2.8; Selectivity Index T. cruzi SN3 Strain E [2]: 3.7; Selectivity Index T. cruzi Tulahuen Strain E [3]: 13.7; Selectivity Index T. cruzi Tulahuen Strain T [6, 9]: 11.2; IC50 ([6]; Trypanosoma cruzi, TULAHUEN, trypomastigotes, 24 h + 4 h resazurin, mean of three ± SD): 12.2 ± 1.2 µM; Selectivity Index T. cruzi Tulahuen Strain A [7, 8]: 8.0; IC50 ([7]; Trypanosoma cruzi, TULAHUEN, amastigotes in Vero cells, 72 h, mean of three ± SD): 17 ± 1.5 µM
12.4 ± 1.2 µM | 59.6 ± 6.2 µM | 39.3 ± 4.2 µM | CN(C)c1cccc2c(S(=O)(=O)N(CCNC(=O)c3ccccn3)CCNC(=O)c3ccccn3)cccc12 [Compound 9] | 49.3 ± 5 µM | –
15.2 ± 1.8 µM | 14.3 ± 1.8 µM | 12.9 ± 1.8 µM | O=S(=O)(c1cccc2ccccc12)N(CCNCc1ccccn1)CCNCc1ccccn1 [Compound 10] | 14.9 ± 1.3 µM | –
12.8 ± 1.7 µM | 21.4 ± 2 µM | 30 ± 2.7 µM | CN(CCNCc1ccccn1)CCNCc1ccccn1 [Compound 11] | 23.3 ± 2.1 µM | –
104 ± 12.8 µM | 87.5 ± 9 µM | 95.2 ± 8.4 µM | CN(CCNCc1ccncc1)CCNCc1ccncc1 [Compound 12] | 188 ± 20.4 µM | –
12.7 ± 1.4 µM | 5.5 ± 4.9 µM | 21 ± 1.8 µM | O=S(=O)(c1cccc2cccnc12)N(CCNCc1ccccn1)CCNCc1ccccn1 [Compound 13] | 28.3 ± 2.4 µM | –
18.3 ± 1.4 µM | 25.8 ± 2.7 µM | 22.4 ± 2.1 µM | c1cc2nc(c1)CNCCN(CCNCc1ccc3[nH]ncc3c1)CCNC2 [Compound 14] | 60.3 ± 7 µM | –
102 ± 9.8 µM | 155 ± 14.9 µM | 129 ± 14.7 µM | c1cc(CNCCN2CCNCc3cccc(n3)CNCC2)nc(CNCCN2CCNCc3cccc(n3)CNCC2)c1 [Compound 16] | 136 ± 14.7 µM | –
